By remaining activity is commonly meant the share of the control activity or signal that is left under treatment. A high value points to much activity left.

Common to all, as to assay type: biochemical, Pseudomonas putida ATCC 12633
Series [1] deals with T1, N-methyl-L-phenylalanine dehydrogenase (Pseudomonas putida, UniProt Q5FB93).
T1 construct: made in house
The experiment in a line: Substrate specificity for keto acids with NADPH as coenzyme (Example 6). The note with it: keto acid 10 mM, NADPH 0.2 mM, methylamine pH 10 60 mM, 37° C.; β-phenylpyruvic acid = 100%. On the procedure:
(§1) Purified form of the present enzyme was obtained from cloned Escherichia coli cells in the same way as in Example 5.
Enzyme activity was measured by adding thereto various keto acids shown in Table 3 to a final concentration of 10 mM, NADPH to a final concentration of 0.2 mM, and methylamine adjusted to pH 10 with sulfuric acid to a final concentration of 60 mM, and examining the change in absorbance of the reaction mixture at 340 nm. The reaction temperature during measurement was 37° C. Defining the activity of the enzyme when β-phenylpyruvic acid was used as the substrate as 100%, the results are shown in Table 3 for relative activity.

Series [2] addresses T1, N-methyl-L-phenylalanine dehydrogenase. The experiment in a line: Substrate specificity for keto acids with NADH as coenzyme (Example 11). Particulars: keto acid 40 mM (β-phenylpyruvic acid 30 mM), NADH 0.3 mM, methylamine 180 mM, pH 10.0, 37° C.; pyruvic acid = 100%. On the procedure:
as §1
Enzyme activity was measured by adding thereto various keto acids shown in Table 4 to a final concentration of 40 mM (except for β-phenylpyruvic acid, which was 30 mM), NADH to a final concentration of 0.3 mM, bis-Tris propane buffer (pH 10.0) to a final concentration of 100 mM, and methylamine to a final concentration of 180 mM, and examining the change in absorbance of the reaction solution at 340 nm. The reaction temperature during measurement was 37° C.

Series [3] has the same target. The experiment in a line: Reverse reaction with NAD as coenzyme (Example 13). Particulars: N-methyl-L-alanine 50 mM, NAD 10 mM, pH 10.0, 37° C. As for the experimental part: as §1
Enzyme activity was measured by adding thereto N-methyl-L-alanine to a final concentration of 50 mM, NAD to a final concentration of 10 mM, and bis-Tris propane buffer (pH 10.0) to a final concentration of 100 mM, and examining the change in absorbance of the reaction mixture at 340 nm. The reaction temperature during measurement was 37° C. The activity was 7.8×10^−3 (u/mg of protein).

Series [4] has the same target. The series is described as follows: Substrate specificity for amines with NADPH as coenzyme (Example 14). On the procedure: as §1
Enzyme activity was measured by adding thereto various amines shown in Table 5 to a final concentration of 60 mM, NADPH to a final concentration of 0.2 mM, and β-phenylpyruvic acid to a final concentration of 10 mM, and examining the change in absorbance of the reaction solution at 340 nm. The reaction temperature during measurement was 37° C.

The target in series [5] is dehydrogenase represented by the amino acid sequence of SEQ ID No. 1 (Pseudomonas putida, UniProt Q5FB93). The experiment in a line: Inhibition of dehydrogenase activity by divalent heavy metals. Particulars: 0.01 mM.
A further series addresses T2, present dehydrogenase (Pseudomonas putida, UniProt Q5FB93).
T2 construct: made in house; host or cells: Escherichia coli BL21 (DE3) carrying pENMadh and pSTV28-GDH; crude cellular extract
T2 sequence (Q5FB93 1-341): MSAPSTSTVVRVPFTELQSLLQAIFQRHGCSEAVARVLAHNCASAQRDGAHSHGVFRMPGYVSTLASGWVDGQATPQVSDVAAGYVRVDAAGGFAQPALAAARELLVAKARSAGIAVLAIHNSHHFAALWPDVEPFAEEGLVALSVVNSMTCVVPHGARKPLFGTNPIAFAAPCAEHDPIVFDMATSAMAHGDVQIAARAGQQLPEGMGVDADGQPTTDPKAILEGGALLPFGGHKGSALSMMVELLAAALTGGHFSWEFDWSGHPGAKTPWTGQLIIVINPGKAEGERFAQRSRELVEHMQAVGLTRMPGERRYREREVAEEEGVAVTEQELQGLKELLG
The series is described as follows: Activity of the present dehydrogenase in crude extract of co-expressing Escherichia coli (Example 18). Particulars: crude cellular extract; pH 10.0, 0.2 mM NADPH, 30 mM methylamine, 10 mM sodium pyruvate, 30° C. On the procedure:
Activity of the present dehydrogenase was measured in a reaction mixture containing 100 mM bis-trispropane buffer (pH 10.0), 0.2 mM NADPH, 30 mM methylamine, and 10 mM sodium pyruvate at 30° C. 1 U was defined as the amount of the enzyme capable of oxidizing 1 μmol of NADPH per minute under the above reaction conditions.

In series [6] the target is T3, N-methyl-L-phenylalanine dehydrogenase (Pseudomonas putida, UniProt Q5FB93).
T3 construct: made in house
T3 sequence (Q5FB93 whole entry, looked up): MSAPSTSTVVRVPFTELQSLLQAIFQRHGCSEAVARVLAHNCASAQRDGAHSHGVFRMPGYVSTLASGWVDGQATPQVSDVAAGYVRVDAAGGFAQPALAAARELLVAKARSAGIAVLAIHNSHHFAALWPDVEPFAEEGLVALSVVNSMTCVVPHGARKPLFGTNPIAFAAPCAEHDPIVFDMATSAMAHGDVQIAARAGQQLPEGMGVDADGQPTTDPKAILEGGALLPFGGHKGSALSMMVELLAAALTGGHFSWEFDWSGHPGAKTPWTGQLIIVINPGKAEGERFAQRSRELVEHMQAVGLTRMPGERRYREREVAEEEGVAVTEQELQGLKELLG
The experiment in a line: Thermal stability of the enzyme (Example 10). On the procedure:
The purified enzyme obtained in Example 5 was left at 25° C., 30° C., 35° C., 40° C., 45° C., and 50° C. for 30 minutes, and then measured for activity as in Example 7. The results are shown in FIG. 4 as remaining activity, with the activity of the untreated enzyme (left in ice) defined as 100.

Series [7] deals with T3, N-methyl-L-phenylalanine dehydrogenase. The experiment in a line: Measurement of optimal pH when NADH is the coenzyme (Example 12). Particulars: pyruvic acid 80 mM, NADH 0.3 mM, methylamine 180 mM, 37° C. On the procedure:
as §1
Enzyme activity was measured by adding thereto pyruvic acid to a final concentration of 80 mM, NADH to a final concentration of 0.3 mM, and methylamine adjusted to various pH values with sulfuric acid to a final concentration of 180 mM, and examining the change in absorbance of the reaction mixture at 340 nm. The reaction temperature during measurement was 37° C. […] The optimal pH of the reaction was 9.5.

For series [8] the target is unchanged. The experiment in a line: Measurement of optimal pH, NADPH (Example 7). The note with it: phenylpyruvic acid and methylamine as substrates, 37° C. On the procedure: as §1
Enzyme activity was measured by adding thereto β-phenylpyruvic acid to a final concentration of 10 mM, NADPH to a final concentration of 0.2 mM, and methylamine adjusted to various pH values with sulfuric acid to a final concentration of 60 mM, and examining the change in absorbance of the reaction solution at 340 nm. The reaction temperature during measurement was 37° C. Defining the amount of enzyme that react with 1 micromole of β-phenylpyruvic acid per minute as 1 unit, the results are shown in FIG. 1 for the relationship between the number of units per protein amount (u/mg) and pH. The optimal pH of the reaction was 10.0.

Series [9] has the same target. The series is described as follows: Optimal working temperature for the enzyme (Example 8). Particulars: phenylpyruvic acid and methylamine as substrates, pH 10; listed as dehydrogenase represented by the amino acid sequence of SEQ ID No. 1. On the procedure: Activity was measured using the same reaction conditions as in Example 6 and with methylamine-sulfuric acid (pH 10), except that the temperature was varied. The optimal temperature was 30 to 40° C.

[10] abbreviates: amine 60 mM, NADPH 0.2 mM, β-phenylpyruvic acid 10 mM, 37° C., methylamine = 100%.

Take `CCCC(=O)C(=O)O` [2-keto-n-valeric acid]: the Relative activity in [1] is 53%; in series [2], 7.5%. The corresponding values for `CCC(=O)C(=O)O` [2-ketobutyric acid] are 98% and 15%. For the molecule `CCCCC(=O)C(=O)O` [2-ketohexanoic acid], the Relative activity in [1] is given as 174%; in [2] it was 20%. In the case of `CCCCCCC(=O)C(=O)O` [2-ketooctanoic acid], the Relative activity in series [1] was 25%. With `CN[C@@H](C)C(=O)O` [N-methyl-L-alanine], the “activity (reverse reaction)” value in series [3] is given as 7.8×10^−3 u/mg of protein. With `CCCN` [N-propylamine], in series [4] (setting [10]), the Relative activity is recorded as 1.1%. Regarding `N` [ammonium], in series [4], the Relative activity is 0%. Take `[Cl][Cu][Cl]` [copper chloride (CuCl2), copper chloride]: the “effect on dehydrogenase activity” value in [5] was “inhibited”. As to `NC1CCCCC1` [cyclohexanamine], the Relative activity in [4] (setting [10]) turned out to be 1.3%. Still for that read-out and setting: as for `CNC` [dimethylamine], the figure is 1.4%; as for `CCN` [ethylamine], 1.5%; as for `CC(C)N` [isopropylamine], 1.5%. As to `[Cl][Hg][Cl]` [mercury chloride (HgCl2), mercury chloride], the “effect on dehydrogenase activity” value in [5] is “inhibited”. Consider `CN` [methylamine], for which the Relative activity in [4] (setting [10]) is reported as 100%. For the molecule `O=C(O)C(=O)Cc1ccccc1` [phenylpyruvic acid], the figures for the Relative activity in series [1] and in [2] were 100% and 0%, respectively. The like results for `CC(=O)C(=O)O` [pyruvic acid] were, in that order, 334% and 100%.

Take `O=C(O)C(=O)CF` [β-fluoropyruvic acid]: the figures for the Relative activity in [1] and in series [2] were 90% and 4.2%, respectively.

B1: present enzyme: novel dehydrogenase from Pseudomonas putida ATCC 12633, polypeptide of SEQ ID No. 1 (protein, listed as Pseudomonas putida)
chain: MSAPSTSTVVRVPFTELQSLLQAIFQRHGCSEAVARVLAHNCASAQRDGAHSHGVFRMPGYVSTLASGWVDGQATPQVSDVAAGYVRVDAAGGFAQPALAAARELLVAKARSAGIAVLAIHNSHHFAALWPDVEPFAEEGLVALSVVNSMTCVVPHGARKPLFGTNPIAFAAPCAEHDPIVFDMATSAMAHGDVQIAARAGQQLPEGMGVDADGQPTTDPKAILEGGALLPFGGHKGSALSMMVELLAAALTGGHFSWEFDWSGHPGAKTPWTGQLIIVINPGKAEGERFAQRSRELVEHMQAVGLTRMPGERRYREREVAEEEGVAVTEQELQGLKELLG
For B1, the “activity of the present dehydrogenase” value with present dehydrogenase was 6.6 U/mg of protein. In series [6] (left 30 minutes, up to 30° C., untreated enzyme = 100), this molecule registered a remaining activity of 100%. In addition, the “temperature of thermal stability” value in [6] (treated at optimal pH (pH 10) for 30 minutes) was less than 30 °C. For the same molecule, the “optimal pH” value in [7] was 9.5; in series [8], 10.0; in series [8] (listed as dehydrogenase of the present invention) it was “around 10”. Also, the optimal temperature entry in series [9] is “around 35 °C”.

(Values after US7452704B2, “Dehydrogenase and a gene encoding the same” (priority 2002, dated 2008).)
